Measurements: patent US10561703B2, “Method of modulating sex hormone levels using a sex hormone secretion modulator” (GEMVAX & KAEL CO., LTD., priority 2013, dated 2020)

Test system: Estradiol E2
Test: Estradiol E2 level in blood (serum CLIA) after repeated sc PEP-1
Format: in vivo, SD rats
Description: PEP-1 (peptide of SEQ ID NO: 1), lyophilized white powder, obtained according to the method mentioned in example 1 was dissolved in 0.9% of saline, considering the correction factor of PEP-1 (purity: 94.13%, content: 92.36%, correction factor: 1.15). 50 mg/mL stock solution was further diluted into 20 mg/mL, 2 mg/mL, and 1 mg/mL with 0.9% saline, and stored at 4° C. for a week until the use.
The purpose of this example is to confirm the change of sexual hormones in blood from SD rats with 7 days repeated daily administration of SEQ ID NO: 1 peptide, PEP-1. This experiment followed the Ethics Regulation of Animal Test by KAMSI Inc. (Korea Animal Medical Science Institute). In addition, this experiment, Non-GLP experiment, referred to the MFDS (Ministry of Food and Drug Safety) notification; Agent 2013-40 (5th April 2013), Principles of Good Laboratory Practice (1997).
SPF Rats (Crlj:CD(SD)) were purchased from ORIENTBio Inc. (Mokdong-ri, Buk-myeon, Gapyeong-gun, Gyeonggi-do, Republic of Korea). 75 male (6.5 weeks old and 190˜210 g) and 75 female (6.5 weeks old and 160˜180 g) rats were monitored for 4 days, and 64 of male and female rats (each) were selected for the experiment. Raising condition is as follows; 23±3° C. of temperature, […] of relative humidity, 10˜20 times/hr of number of air changes, 12 hours (8 a.m.˜8 p.m.) of lighting with 150˜300 Lux of intensity.
64 male and female […] (mentioned above) were divided into 8 groups. Administration regimen, for example, drugs, routes, dosages, and volumes were as follows:
The detailed administration regimen is as follows; once a day, twice a day and twice a week in each experimental group. Injection initiated at 10 a.m. every day, and each rat was injected at one minute intervals. Rats in Group 9, 10, 13 and 14 were injected twice a week. Administration of high dose test agent preceded that of low dose. The volume of injection was calculated using recently measured weight of rats, and it was 5 mL/kg. Subcutaneous injection was performed as follows; assistant tilted the back of rat upward, and experimenter sterilized the back of rat with 70% alcohol, followed by subcutaneous injection of test agent with 26 G syringe.
1.4 mL of blood sample (0.7 mL of serum) was collected after measurement of weight (Day 0). Next day (1 Day), 1.4 mL of blood sample (0.7 mL of serum) was collected twice after injection of test agent (4 hrs and 8 hrs after administration of test agent). […]
A CLIA (Chemi-Luminescence Immune Assay) Kit was used to analyze Testosterone, Estradiol E2, FSH (Follicle stimulating hormone), and LH (Luteinizing hormone). […]
Estradiol E2 was analyzed using the samples prepared from example 2. […] As mentioned in example 2, CLIA (Chemi-luminescence immune assay) Kit was used, following the manufacture's protocol. […]

**Q.** Which results are given for “EARPALLTSRLRFIPK (listed as Homo sapiens) [PEP-1, hormone secretion modulator / GnRH analog]”?
**A.** Estradiol E2 level (female group, Day 1, all groups (PEP-1 and/or vehicle), baseline 20-50 pg/mL): 16 to 30 pg/mL; Effect on Estradiol E2 level (female group, level recovered from Day 3-4): inhibited the Estradiol E2 level in the beginning; Effect on Estradiol E2 level (male rat): does not have effect on Estradiol E2 level; Estradiol E2 level (male rat, initial level remained same until Day 7): 15 to 20 pg/mL
